Test results as given in patent US20260041620A1, “NOVEL AMINO ACID BASED SALTS, COMPOSITIONS AND METHODS FOR TREATING SKIN AND IMPROVING SKIN REJUVENATION AND LONGEVITY” (Sytheon Ltd, priority 2023, published 2026).

Columns and labels:
Prolidase (PEPD) = assay: Prolidase Assay (ELISA); assay type: cell-based; details: for Prolidase: untreated 74 ± 3
Protocol: A series of standards was prepared and 50 μl aliquots of the standards and the test samples identified in Table 6 were added to wells of a prolidase ELISA plate, followed by the addition of 100 μl […] conjugated anti-prolidase antibody. The plate was then incubated at 37° C. for 1 hour, Following incubation, the ELISA plate was washed and 100 μl of substrate solution was added to each well and the well-plate incubated for 10-15 minutes at room temperature to allow the color generation reaction to occur. At the end of the color generation reaction, 50 μl of stop solution (1 N sulfuric acid) was added to each well and the plates read at 460 nm using a plate reader.
(§1) To quantify the amount of each substance present, a standard curve was generated using known concentrations of each substance. A regression analysis was performed to establish the line that best fit those data points. Absorbance values for the test materials and untreated samples were used to estimate the amount of each substance present in each sample. Treatment means were compared using ANOVA, with an […] per treatment. Statistical significance was set at p≤0.05.

Type I Collagen = Type I Collagen Assay (ELISA, fibroblast culture medium); assay type: cell-based, human; details: for Type I Collagen C-Peptide: 48 hours, untreated 1255 ± 83
Protocol: (§2) In the study, human neonatal fibroblasts were seeded into the individual wells of a 48-well plate in 0.25 ml of Fibroblasts Growth Media (FGM) and incubated overnight at 37±2° C. and a 5±1% CO2 atmosphere. On the following day the media was removed via aspiration to eliminate non-adherent cells and replaced with 0.5 ml of fresh FGM. The cells were grown until confluent, with a media change every 48 to 72 hours. Upon reaching confluency the cells were treated for 24 hours with Dulbecco's Modified Eagle's medium (DMED) supplemented with 1.5% Fetal Bovine Serum (FBS) to wash out any effects from the growth factors included in the normal culture media. After this 24-hour wash out period the cells were treated with the test materials at the specified concentrations dissolved in FGM with 1.5% FBS. Sodium ascorbate (10 ug/ml) was used as a positive control. Untreated cells (negative controls) only received DMEM with […], The cells were incubated for 48 hours and at the end of the incubation period, cell culture medium was collected and either stored frozen (−75 C) or assayed immediately. Materials were tested in triplicate.
A series of type I collagen peptide standards was prepared ranging from 0 ng/ml to 640 ng/ml. An ELISA microplate was prepared by removing any unneeded strips from the plate frame followed by the addition of 100 μl of peroxidase labelled anti-procollagen type I-C peptide antibody to each well used in the assay. A 20 μl sample of each of the collected tissue culture media or a standard was then added to appropriate wells and the microplate covered and allowed to incubate for 3±0.25 hours at 37 C. Following incubation, the wells were aspirated and washed three times with 400 μl of wash buffer. After the last wash was remove 100 μl of peroxidase substrate solution (hydrogen peroxide+tetramethylbenzidine as a chromogen) was added to each well and the plate incubated for 15±4 minutes at room temperature. Following this incubation, 100 μl of stop solution (1 N sulfuric acid) was added to each well and the plate read using a microplate reader at 450 nm.
as §1

Type IV Collagen = Type IV Collagen Assay (ELISA, fibroblast culture medium); assay type: cell-based, human; details: for Type IV Collagen C-Peptide: 48 hours, untreated 7.76 ± 0.92
Protocol: as §2
A series of type IV collagen peptide standards was prepared ranging from 0 ng/ml to 640 ng/ml. 100 μl of each standard or of each of the collected tissue culture media were added to the wells of type IV collagen ELISA plates. The plates were then incubated at 37° C. for 1 hour. After incubation, the ELISA plates were then washed twice with wash buffer, followed by the addition of 100 μl of detection antibody solution. The ELISA plates were then incubated for 1 hour at 37° C. Following incubation, the ELISA plates were washed with wash solution followed by the addition of 100 μl HEP conjugate solution and incubated at 37° C. for 30 minutes. Following the latter incubation, the ELISA plates were again washed and 100 μl of the substrate solution was added to each well and the well plates incubated for 10-30 minutes at room temperature to allow the color generation reaction to occur. At the end of the color generation reaction 100 μl of stop solution (1 N sulfuric acid) was added to each well and the plates read at 460 nm using a plate reader.
as §1

HDAC1 = HDAC1 (Homo sapiens, UniProt Q13547); details: reported, abcam; cited from earlier work
[1] = concentrations as high as 100 μg/ml

HDAC1, sequence (Q13547 whole entry, species assumed): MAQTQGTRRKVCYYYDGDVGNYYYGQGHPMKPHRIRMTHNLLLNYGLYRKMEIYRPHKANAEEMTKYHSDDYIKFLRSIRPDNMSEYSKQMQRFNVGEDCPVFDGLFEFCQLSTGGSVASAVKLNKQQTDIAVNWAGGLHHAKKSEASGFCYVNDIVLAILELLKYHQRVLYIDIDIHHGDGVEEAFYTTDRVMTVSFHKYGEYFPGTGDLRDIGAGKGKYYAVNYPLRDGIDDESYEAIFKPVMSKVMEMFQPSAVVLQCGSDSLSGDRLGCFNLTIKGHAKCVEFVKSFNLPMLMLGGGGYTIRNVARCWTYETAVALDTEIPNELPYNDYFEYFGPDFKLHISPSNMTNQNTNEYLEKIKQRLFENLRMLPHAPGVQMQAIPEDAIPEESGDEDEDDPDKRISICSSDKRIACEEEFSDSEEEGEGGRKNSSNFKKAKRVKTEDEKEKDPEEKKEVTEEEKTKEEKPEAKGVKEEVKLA

Structure (SMILES) | Prolidase (Prolidase (PEPD); 10 μg/ml) [ng/mL] | Prolidase (Prolidase (PEPD); 20 μg/ml) [ng/mL] | Prolidase (Prolidase (PEPD); 30 μg/ml) [ng/mL] | Prolidase (Prolidase (PEPD); 60 μg/ml) [ng/mL] | Type I Collagen C-Peptide (Type I Collagen; 10 μg/ml) [ng/mL] | Type I Collagen C-Peptide (Type I Collagen; 30 μg/ml) [ng/mL] | Type IV Collagen C-Peptide (Type IV Collagen; 10 μg/ml) [ng/mL] | Type IV Collagen C-Peptide (Type IV Collagen; 30 μg/ml) [ng/mL] | other results
CCCC(=O)NCCCC[C@H](NC(=O)CCC)C(=O)[O-].CCCC(=O)NCCCC[C@H](NC(=O)CCC)C(=O)[O-].[Zn+2] [Zn di-(di-n-butyryl lysinate), Zinc di-(di-n-butyryl lysinate)] | 66 ± 4 | 104 ± 5 | 115 ± 8 | 145 ± 5 | 1328 ± 48 | 1958 ± 125 | 13.41 ± 1.40 | 26.98 ± 1.37 | increase of prolidase vs control (Prolidase (PEPD); 60 μg/ml): 50%; Type I Collagen C-Peptide (Type I Collagen; 20 μg/ml): 1541 ± 94 ng/mL; boost of Collagen I vs control (Type I Collagen; 30 μg/ml): ~50%; boosting of Collagen IV versus control (Type IV Collagen; 20 μg/ml): ~250%; Type IV Collagen C-Peptide (Type IV Collagen; 20 μg/ml): 21.19 ± 1.47 ng/mL; boosting of Collagen IV versus control (Type IV Collagen; 30 μg/ml): ~320%
CCCC(=O)[O-].[Na+] [Sodium butyrate, reference compound] | 54 ± 3 | 47 ± 6 | 37 ± 5 | 33 ± 5 | 1445 ± 168 | 1262 ± 95 | 9.29 ± 0.70 | 7.61 ± 0.70 | decrease of prolidase vs control (Prolidase (PEPD); 60 μg/ml): 50%; IC50 (HDAC1): 300 µM; Type I Collagen C-Peptide (Type I Collagen; 60 μg/ml): 1196 ± 175 ng/mL; Type I Collagen C-Peptide (Type I Collagen; 100 μg/ml): 1277 ± 216 ng/mL; Collagen I boosting activity (Type I Collagen; [1]): didn't show any; Type IV Collagen C-Peptide (Type IV Collagen; 60 μg/ml): 11.88 ± 1.37 ng/mL; Type IV Collagen C-Peptide (Type IV Collagen; 100 μg/ml): 12.80 ± 1.83 ng/mL; Collagen IV boosting activity (Type IV Collagen; [1]): didn't show any
